In patent publication US20100249419A1, “UTILIZATION OF NOVEL COMPOUNDS WITH AMYLOID AFFINITY AND METHOD OF PRODUCING THE SAME” (NIHON MEDI-PHYSICS CO., LTD., priority 2007, published 2010):

Assay: Radioactive distribution ratio in each organ
Type: in vivo, SD rat
Experimental: In order to confirm that a compound of the present invention can be distributed in a target organ and has good clearance to the outside of the body, Compound 1 was used to measure a time-course change of radioactive accumulation to each organ in SD rat (8 weeks).
A solution of Compound 1 prepared in Example 3 in diethylether was diluted with a 10 mg/mL ascorbic acid-containing physiological saline solution (Example 10) and adjusted to 8-12 MBq/mL in radioactive concentration. 0.05 mL each of the prepared sample solution was administered under thiopental anesthesia into the tail vein of the above rat. The rats were sacrificed by bleeding from abdominal artery, and each organ shown in Table 11 was removed 5, 30, 60 and 180 minutes after the administration. Each removed organ was subjected to measurement of mass and radioactivity with the same method as in Example 10. Also, radioactivity of the whole body of the rat after removal of the organs (hereinafter referred to as rest of the whole body) was measured. Using these measurement results, radioactive distribution per unit weight of each organ (% ID/g) at the respective time points was calculated in accordance with the following formula (7).
Three animals were used for the experiment at the respective time points.
[formula] • R^T: Radioactivity of target organ (cpm) • R^S: Sum of radioactivity of all the organs (cpm) • R^R: Radioactivity of the rest of the whole body (cpm) • M^T: Mass of target organ (g)

## 2-[4′-(2″-hydroxyethoxy)phenyl]-6-[^123I]iodoimidazo[1,2-a]pyridine [Compound 1]
Adrenal gland, 5 min. after administration
  Radioactive distribution per unit weight of organ, Average: 2.471 % ID/g
Adrenal gland, 30 min. after administration
  Radioactive distribution per unit weight of organ, Average: 0.199 % ID/g
Adrenal gland, 60 min. after administration
  Radioactive distribution per unit weight of organ, Average: 0.068 % ID/g
Adrenal gland, 180 min. after administration
  Radioactive distribution per unit weight of organ, Average: 0.052 % ID/g
Blood, 5 min. after administration
  Radioactive distribution per unit weight of organ, Average: 0.420 % ID/g
Blood, 30 min. after administration
  Radioactive distribution per unit weight of organ, Average: 0.129 % ID/g
Blood, 60 min. after administration
  Radioactive distribution per unit weight of organ, Average: 0.101 % ID/g
Blood, 180 min. after administration
  Radioactive distribution per unit weight of organ, Average: 0.068 % ID/g
Bone, 5 min. after administration
  Radioactive distribution per unit weight of organ, Average: 0.282 % ID/g
Bone, 30 min. after administration
  Radioactive distribution per unit weight of organ, Average: 0.066 % ID/g
Bone, 60 min. after administration
  Radioactive distribution per unit weight of organ, Average: 0.047 % ID/g
Bone, 180 min. after administration
  Radioactive distribution per unit weight of organ, Average: 0.032 % ID/g
Brain, 5 min. after administration
  Radioactive distribution per unit weight of organ, Average: 0.755 % ID/g
Brain, 30 min. after administration
  Radioactive distribution per unit weight of organ, Average: 0.049 % ID/g
Brain, 60 min. after administration
  Radioactive distribution per unit weight of organ, Average: 0.014 % ID/g
Brain, 180 min. after administration
  Radioactive distribution per unit weight of organ, Average: 0.005 % ID/g
Heart, 5 min. after administration
  Radioactive distribution per unit weight of organ, Average: 0.582 % ID/g
Heart, 30 min. after administration
  Radioactive distribution per unit weight of organ, Average: 0.081 % ID/g
Heart, 60 min. after administration
  Radioactive distribution per unit weight of organ, Average: 0.049 % ID/g
Heart, 180 min. after administration
  Radioactive distribution per unit weight of organ, Average: 0.029 % ID/g
Kidney, 5 min. after administration
  Radioactive distribution per unit weight of organ, Average: 1.212 % ID/g
Kidney, 30 min. after administration
  Radioactive distribution per unit weight of organ, Average: 0.432 % ID/g
Kidney, 60 min. after administration
  Radioactive distribution per unit weight of organ, Average: 0.236 % ID/g
Kidney, 180 min. after administration
  Radioactive distribution per unit weight of organ, Average: 0.070 % ID/g
Large intestine, 5 min. after administration
  Radioactive distribution per unit weight of organ, Average: 0.139 % ID/g
Large intestine, 30 min. after administration
  Radioactive distribution per unit weight of organ, Average: 0.054 % ID/g
Large intestine, 60 min. after administration
  Radioactive distribution per unit weight of organ, Average: 0.069 % ID/g
Large intestine, 180 min. after administration
  Radioactive distribution per unit weight of organ, Average: 6.876 % ID/g
Liver, 5 min. after administration
  Radioactive distribution per unit weight of organ, Average: 1.865 % ID/g
Liver, 30 min. after administration
  Radioactive distribution per unit weight of organ, Average: 0.293 % ID/g
Liver, 60 min. after administration
  Radioactive distribution per unit weight of organ, Average: 0.113 % ID/g
Liver, 180 min. after administration
  Radioactive distribution per unit weight of organ, Average: 0.051 % ID/g
Lung, 5 min. after administration
  Radioactive distribution per unit weight of organ, Average: 0.661 % ID/g
Lung, 30 min. after administration
  Radioactive distribution per unit weight of organ, Average: 0.117 % ID/g
Lung, 60 min. after administration
  Radioactive distribution per unit weight of organ, Average: 0.076 % ID/g
Lung, 180 min. after administration
  Radioactive distribution per unit weight of organ, Average: 0.053 % ID/g
Marrow, 5 min. after administration
  Radioactive distribution per unit weight of organ, Average: 0.921 % ID/g
Marrow, 30 min. after administration
  Radioactive distribution per unit weight of organ, Average: 0.087 % ID/g
Marrow, 60 min. after administration
  Radioactive distribution per unit weight of organ, Average: 0.015 % ID/g
Marrow, 180 min. after administration
  Radioactive distribution per unit weight of organ, Average: 0.000 % ID/g
Muscle, 5 min. after administration
  Radioactive distribution per unit weight of organ, Average: 0.372 % ID/g
Muscle, 30 min. after administration
  Radioactive distribution per unit weight of organ, Average: 0.042 % ID/g
Muscle, 60 min. after administration
  Radioactive distribution per unit weight of organ, Average: 0.025 % ID/g
Muscle, 180 min. after administration
  Radioactive distribution per unit weight of organ, Average: 0.015 % ID/g
Pancreas, 5 min. after administration
  Radioactive distribution per unit weight of organ, Average: 0.778 % ID/g
Pancreas, 30 min. after administration
  Radioactive distribution per unit weight of organ, Average: 0.097 % ID/g
Pancreas, 60 min. after administration
  Radioactive distribution per unit weight of organ, Average: 0.051 % ID/g
Pancreas, 180 min. after administration
  Radioactive distribution per unit weight of organ, Average: 0.033 % ID/g
SD rat, tail vein administration
  Excretion / clearance to the outside of the body: biliary-excreted rapidly
Small intestine, 5 min. after administration
  Radioactive distribution per unit weight of organ, Average: 1.299 % ID/g
Small intestine, 30 min. after administration
  Radioactive distribution per unit weight of organ, Average: 6.720 % ID/g
Small intestine, 60 min. after administration
  Radioactive distribution per unit weight of organ, Average: 7.515 % ID/g
Small intestine, 180 min. after administration
  Radioactive distribution per unit weight of organ, Average: 0.882 % ID/g
Spleen, 5 min. after administration
  Radioactive distribution per unit weight of organ, Average: 0.508 % ID/g
Spleen, 30 min. after administration
  Radioactive distribution per unit weight of organ, Average: 0.072 % ID/g
Spleen, 60 min. after administration
  Radioactive distribution per unit weight of organ, Average: 0.044 % ID/g
Spleen, 180 min. after administration
  Radioactive distribution per unit weight of organ, Average: 0.035 % ID/g
Stomach, 5 min. after administration
  Radioactive distribution per unit weight of organ, Average: 0.492 % ID/g
Stomach, 30 min. after administration
  Radioactive distribution per unit weight of organ, Average: 1.202 % ID/g
Stomach, 60 min. after administration
  Radioactive distribution per unit weight of organ, Average: 0.808 % ID/g
Stomach, 180 min. after administration
  Radioactive distribution per unit weight of organ, Average: 0.982 % ID/g
bones
  Ratio (% ID/g at 5 minutes after the administration)/(% ID/g at 180 minutes after the administration): 9
brain
  Ratio (% ID/g at 5 minutes after the administration)/(% ID/g at 180 minutes after the administration): 145
heart
  Ratio (% ID/g at 5 minutes after the administration)/(% ID/g at 180 minutes after the administration): 20
lung
  Ratio (% ID/g at 5 minutes after the administration)/(% ID/g at 180 minutes after the administration): 13
pancreas
  Ratio (% ID/g at 5 minutes after the administration)/(% ID/g at 180 minutes after the administration): 24
